Chromatographic logP and LogP data for 27 compounds are collected here from US8119645B2, “Fungicide hydroximoyl-tetrazole derivatives” (Bayer Cropscience AG, priority 2006, dated 2012).

In general, chromatographic logP refers to lipophilicity estimated from chromatographic retention. High values mean a more lipophilic compound, low ones a more hydrophilic compound. Usually LogP stands for the decadic logarithm of the partition coefficient of the neutral form, usually between octanol and water. Lower therefore signals lower lipophilicity.

Molecules are shown by their SMILES.

One data set is described as follows: logP by reversed-phase HPLC (EEC Directive 79/831 Annex V.A8). In kind it is physicochemical.
Conditions: not given
For `Cn1nnnc1/C(=N/OCc1cccc(N2C(=O)c3ccccc3C2=O)n1)c1csc(-c2ccccc2)n1` [Compound 173, O-(2-Phtalimidopyridin-6-yl)methyl-(2-phenyl-1,3-thiazol-4-yl)-(1-methyitetrazol-5-yl)methanone oxime], the chromatographic logP amounted to 3.46.
As to `Cc1nnnn1/C(=N/OCc1csc(N)n1)c1ccsc1` [Compound 20, O-(2-Amino-1,3-thiazol-4-yl)methyl-(thien-3-yl)-(5-methyltetrazol-1-yl)methanone oxime], the chromatographic logP stood at 1.32.
Compound `Cn1nnnc1/C(=N/OCc1cccc(N)n1)c1csc(-c2ccccc2)n1` [Compound 174, O-(2-Aminopyridin-6-yl)methyl-(2-phenyl-1,3-thiazol-4-yl)-(1-methyltetrazol-5-yl)methanone oxime] gave a chromatographic logP of 1.57.

The data set is the same for the next values; noted with them: HPLC C18, 40° C., 0.1% aqueous formic acid / acetonitrile gradient.
`Cc1ccc(C(=NOCc2csc(N)n2)n2nnnc2C)o1` [Compound 58] displayed a lipophilicity (LogP) of 1.47.
`Cc1nnnn1C(=NOCc1csc(NC(=O)c2ccccc2)n1)c1ccsc1` [Compound 35] showed a LogP of 2.93.
Consider `Cc1nnnn1C(=NOCc1csc(NC(=O)Nc2ccccc2)n1)c1ccsc1` [Compound 21], for which the LogP turned out to be 2.88.
With `Cc1ccc(C(=NOCc2csc(NC(=O)CCc3ccccc3)n2)n2nnnc2C)o1` [Compound 61], the LogP was 3.15.
On to `CCCCCC(=O)Nc1nc(CON=C(c2ccc(-c3ccccc3)s2)n2nnnc2C)cs1` [Compound 57], for which the LogP is 4.58.
The compound `Cc1ccc(C(=NOCc2csc(NC(=O)NCCc3ccccc3)n2)n2nnnc2C)s1` [Compound 118] returned a LogP of 3.33.
The same measure, in the same setting: next, `CCCCCOC(=O)Nc1cccc(CON=C(c2ccc(C)o2)n2nnnc2C)n1` [Compound 74]: 4.04; `CCCC(=O)Nc1nc(CON=C(c2ccc(C)s2)n2nnnc2C)cs1` [Compound 114]: 2.88; `Cc1ccc(C(=NOCc2csc(NC(=O)C3CC3)n2)n2nnnc2C)o1` [Compound 68]: 2.41.
Still for that read-out and setting: to `CCCCCC(=O)Nc1nc(CON=C(c2ccsc2Cl)n2nnnc2C)cs1` [Compound 13] belongs 3.59; to `CCCCCC(=O)Nc1nc(CON=C(c2csc(-c3ccccc3)n2)c2nnnn2C)cs1` [Compound 171], 3.94.
Regarding `Cc1nnnn1C(=NOCc1csc(NC(=O)OCCc2ccccc2)n1)c1ccc(Cl)s1` [Compound 110], the LogP came out at 4.24.
Still for that read-out and setting: to `COCCOCC(=O)Nc1nc(CON=C(c2ccc(Br)s2)n2nnnc2C)cs1` [Compound 98] belongs 2.94; to `C=CCC(=O)Nc1nc(CON=C(c2ccc(C)o2)n2nnnc2C)cs1` [Compound 69], 2.42.
The compound `COCCOCC(=O)Nc1nc(CON=C(c2ccsc2)n2nnnc2C)cs1` [Compound 48] gave a LogP of 2.28.
`CCCCCCCCNC(=O)Nc1nc(CON=C(c2ccsc2)n2nnnc2C)cs1` [Compound 23] came in with a LogP of 3.26.
Consider `CCCCCOC(=O)Nc1cccc(CON=C(c2ccsc2Cl)n2nnnc2C)n1` [Compound 16], for which the lipophilicity (LogP) came out at 4.19.
Consider `Cc1nnnn1C(=NOCc1cccc(NC(=O)C(C)(C)C)n1)c1ccsc1` [Compound 37], for which the LogP is given as 3.
The compound `Cc1nnnn1C(=NOCc1csc(NC(=O)C2CCCC2)n1)c1ccc(Br)s1` [Compound 90] gave a LogP of 3.66.
The compound `Cc1ccc(C(=NOCc2csc(NC(=O)CCc3ccccc3)n2)n2nnnc2C)s1` [Compound 122] had a LogP of 3.54.
In the case of `Cc1nnnn1C(=NOCc1csc(NC(=O)COCc2ccccc2)n1)c1ccc(Br)s1` [Compound 95], the LogP is 3.76.
`Cn1nnnc1C(=NOCc1csc(NC(=O)c2ccccc2)n1)c1csc(-c2ccccc2)n1` [Compound 169] had a LogP of 3.62. This LogP and that of the compound before are within 0.2 log units of each other.
Still for that read-out and setting: to `CCCCCCCCC(=O)Nc1nc(CON=C(c2ccsc2)n2nnnc2C)cs1` [Compound 41] belongs 4.51; to `Cc1nnnn1C(=NOCc1csc(NC(=O)CCc2ccccc2)n1)c1ccsc1Cl` [Compound 9], 3.45.
